Assay results taken from PMC7617869, “Molecular glues that inhibit deubiquitylase activity and inflammatory signaling” (Nature Structural & Molecular Biology, 2025).

Assays:
[1] = target: T1, BRISC (Homo sapiens, UniProt P46736+Q15018+Q9NXR7); assay: Compound library screening and hit validation (IQF diubiquitin, 1 nM BRISC); assay type: biochemical
T1 construct: made in house; host or cells: Spodoptera frugiperda (Sf9) insect cells, MultiBac
Description: Assays were performed in 384-well black flat-bottom low-flange plates (Corning, 35373) in buffer containing 50 mM HEPES–NaOH pH 7.0, 100 mM NaCl, 1 mg ml^−1 BSA, 1 mM DTT and 0.03% v/v Brij-35. Then, 10 μl of twofold concentrated enzyme stock was dispensed, followed by transfer of 200 nl of compounds (1 mM stock) using a 384-pin tool and a 15-min incubation at room temperature. Then, 10 μl of twofold concentrated substrate stock was added and the reaction was monitored by measuring fluorescence intensity (excitation, 540 nm; emission, 580 nm) after 20-min incubation at room temperature and ~50% of substrate was consumed. Orthogonal assays for verification of H20 and P12 hit compounds using USP2 (100 nM) and trypsin (125 nM) were performed in identical conditions.

[2] = target: T1, BRISC; assay: BRISC DUB activity assay (IQF K63-linked diubiquitin); assay type: biochemical; details: for IC50: IQF K63-linked diubiquitin substrate, read-out: IC50, inhibition of BRISC DUB activity; for Mean V0: Fig. 1d
Description: IQF assays were performed in DUB reaction buffer containing 50 mM HEPES–NaOH pH 7.0, 100 mM NaCl, 0.1 mg ml^−1 BSA, 1 mM DTT and 0.03% v/v Brij-35. […] The final concentration of BRISC WT, all BRISC mutants, HsBRISCΔLoop, MmBRISC and DrBRISCΔNΔC was 1 nM. Other enzymes were tested at the following concentrations: 5 nM ARISC (FL), 10 nM CfBRISCΔNΔC, 250 nM AMSH* (ref. [43]), 500 nM USP2 and 1 μM trypsin (Sigma, 9002-07-7). For Michaelis–Menten experiments, 1 nM BRISC with 0–1 μM IQF K63-linked diubiquitin substrate was used. Michaelis–Menten analyses and Lineweaver–Burk plots were calculated using GraphPad Prism (version 9.0).
To assess enzymatic activity, BRISC complexes were diluted to concentrations between 1 nM and 50 nM. […] Then, 20-μl enzyme reactions were carried out in 384-well black flat-bottom low-flange plates (Corning, 35373). DUB activity was measured using IQF K63-linked diubiquitin (LifeSensors, DU6303) at 50 nM. Cleaved diubiquitin was monitored by measuring fluorescence intensity (excitation, 544 nm; emission, 575 nm; dichroic mirror, 560 nm). Fluorescence intensity was measured every minute for 30 min at 30 °C. Fluorescence intensity units were plotted against time to generate a linear reaction progress curve, where the initial velocity (V0) corresponds to the gradient of the curve (typically achieved within 15 min). IC50 values were calculated using the GraphPad Prism (version 9.0) built-in dose–response equation for inhibitor concentration versus response (variable slope).

| SMILES | normalised V0, Mean ([1]; log[compound (μM)] 0.0000) | normalised V0, Mean ([1]; log[compound (μM)] 1.0000) | normalised V0, Mean ([1]; log[compound (μM)] 1.6990) | normalised V0, Mean ([1]; log[compound (μM)] 2.0000) | IC50 [2] [µM] | normalised V0, Mean ([2]; inhibitor 0.0268861 μM) | normalised V0, Mean ([2]; inhibitor 0.268861 μM) | normalised V0, Mean ([2]; inhibitor 0.806584 μM) | normalised V0, Mean ([2]; inhibitor 2.41975 μM) | normalised V0, Mean ([2]; inhibitor 7.25926 μM) | normalised V0, Mean ([2]; inhibitor 21.7778 μM) | normalised V0, Mean ([2]; inhibitor 65.3333 μM) | normalised V0, Mean ([2]; inhibitor 196 μM) | further results |
| --- | --- | --- | --- | --- | --- | --- | --- | --- | --- | --- | --- | --- | --- | --- |
| O=C(NC1CCNCC1)c1n[nH]cc1NC(=O)c1c(Cl)cccc1Cl [AT7519 (Sellekchem)] | 0.9555 | 1.0109 | 1.0462 | 1.0357 | – | – | – | – | – | – | – | – | – | normalised V0, Mean ([1]; log[compound (μM)] 0.6990): 1.0013; normalised V0, Mean ([1]; log[compound (μM)] 1.4771): 0.9903; normalised V0, Mean ([1]; log[compound (μM)] 2.3010): 0.9736; normalised V0, Mean ([1]; log[compound (μM)] -1.0000): 1.0118; normalised V0, Mean ([1]; log[compound (μM)] -1.3010): 0.9395; normalised V0, Mean ([1]; log[compound (μM)] -4.0000): 1.0025 |
| O=C(NC1CCNCC1)c1n[nH]cc1NC(=O)c1c(Cl)cccc1Cl [AT7519 (Synkinase)] | 0.9360 | 0.9184 | 0.8666 | 0.8425 | – | – | – | – | – | – | – | – | – | normalised V0, Mean ([1]; log[compound (μM)] 1.3010): 0.8902; normalised V0, Mean ([1]; log[compound (μM)] -3.0000, normalisation point): 1 |
| O=C(NC1CCNCC1)c1n[nH]cc1NC(=O)c1c(Cl)cccc1Cl [AT7519, N-(4-piperidinyl)-4-(2,6-dichlorobenzoylamino)-1H-pyrazole-3-carboxamide, reference compound] | – | – | – | – | – | – | – | – | – | – | – | – | – | inhibition of BRISC DUB activity (in words) ([2]; IQF diubiquitin assay): neither inhibited |
| O=C(NC1CCNCC1)c1nn(C(=O)c2c(Cl)cccc2Cl)cc1NC(=O)c1c(Cl)cccc1Cl [JMS175-2] | – | – | – | – | – | – | – | – | – | – | – | – | – | Mean V0 ([2]; log[compound (μM)] 0.1938): 0.5385; Mean V0 ([2]; log[compound (μM)] 0.4949): 0.3840; Mean V0 ([2]; log[compound (μM)] 0.7959): 0.2986; Mean V0 ([2]; log[compound (μM)] 1.0969): 0.2014; Mean V0 ([2]; log[compound (μM)] 1.3979): 0.1684; Mean V0 ([2]; log[compound (μM)] 1.6990): 0.1492; Mean V0 ([2]; log[compound (μM)] 2.0000): 0.0500; Mean V0 ([2]; log[compound (μM)] 2.3010): 0.0048; Mean V0 ([2]; log[compound (μM)] -0.1072): 0.7414; Mean V0 ([2]; log[compound (μM)] -1.1072): 0.9992; Mean V0 ([2]; log[compound (μM)] -2.0000): 1.0000 |

Continued, in another order:

| normalised V0, Mean ([1]; log[compound (μM)] 0.0000) | normalised V0, Mean ([1]; log[compound (μM)] 1.0000) | normalised V0, Mean ([1]; log[compound (μM)] 1.6990) | normalised V0, Mean ([1]; log[compound (μM)] 2.0000) | IC50 [2] [µM] | normalised V0, Mean ([2]; inhibitor 0.0268861 μM) | normalised V0, Mean ([2]; inhibitor 0.268861 μM) | normalised V0, Mean ([2]; inhibitor 0.806584 μM) | normalised V0, Mean ([2]; inhibitor 2.41975 μM) | normalised V0, Mean ([2]; inhibitor 7.25926 μM) | normalised V0, Mean ([2]; inhibitor 21.7778 μM) | normalised V0, Mean ([2]; inhibitor 65.3333 μM) | normalised V0, Mean ([2]; inhibitor 196 μM) | SMILES | further results |
| --- | --- | --- | --- | --- | --- | --- | --- | --- | --- | --- | --- | --- | --- | --- |
| – | – | – | – | 5.2 | 1 | 0.8889 | 0.8346 | 0.6971 | 0.4496 | 0.3208 | 0.1744 | 0.1298 | CN1CCC(NC(=O)c2nn(C(=O)c3c(Cl)cccc3Cl)cc2NC(=O)c2c(Cl)cccc2Cl)CC1 [FX-25-1] | – |
| – | – | – | – | 21 | 1 | 1.082 | 1.109 | 1.0044 | 1.002 | 0.6484 | 0.3437 | 0.2841 | C[N+]1(C)CCC(NC(=O)c2nn(C(=O)c3c(Cl)cccc3Cl)cc2NC(=O)c2c(Cl)cccc2Cl)CC1 [FX-25-2] | – |
